In brackets after ≈: the same amount, converted by molar mass.
Key:
[1] = test system: histamine; assay: Muscle tone of isolated ileal smooth muscle of guinea pigs contracted with histamine; settings: Table 4; relative to tone after adding histamine; x±s, n = 8; 3 min
Description: (§1) The guinea pig was knocked unconscious with a wooden stick, and the abdomen was immediately dissected to separate the ileum about 15 cm in length. The contents of the intestinal segment were flushed with Tyrode's solution and placed in Tyrode's solution at a constant temperature of 37°C for later use, and oxygen was supplied simultaneously. The experimental intestinal tract (1 cm in length) was cut and placed into 20 ml of Tyrode's solution at a constant temperature of 37°C with a continuous oxygen supply. One end of the intestine was fixed on the ventilation hook and the other end was connected to the muscle tone transducer and led to the computer interface. The muscle tone value of the ileal smooth muscle was recorded with a BL system. The experiment was carried out after the intestinal segment contraction became stable.
(§2) After the ileal peristalsis curve stabilized, the tone values before adding the compound were recorded, and then 0.05 mL of histamine was added. […] The operation was repeated 8 times. The antispasmodic percentage was calculated using the following equation. Antispasmodic percentage; = (Tone value after adding histamine−Tone value after adding subject compound)/(Tone value after adding histamine) × 100% [formula]

[2] = Solubility in water, methanol and isopropanol; settings: for solubility Isopropanol: in isopropanol; for solubility Water: in water
Description: The solubility in water, methanol, and isopropanol of the compounds of the present disclosure and the comparative compounds were measured separately.

[3] = test system: isolated ileal smooth muscle; assay: Muscle tone of isolated ileal smooth muscle of guinea pigs, compound alone; settings: Table 3, no histamine, X±s, n = 8; for Antispasmodic percentage (%): relative to tone before adding compound, 5 min; for Smooth muscle tone (g) After administration: 5 minutes after adding the drug
Description: as §1
After the ileum contraction curve stabilized, the tone values before adding the drug were recorded, then the drug or DMSO was added, and the average tone value of the ileum contraction curve at that point was recorded 5 minutes later. The operation was repeated 8 times. The antispasmodic percentage was calculated according to the following formula. Antispasmodic percentage =; (Tone value before adding subject compound−Tone value after adding subject compound)/(Tone value before adding subject compound) × 100% [formula]

[4] = test system: histamine-induced asthma; assay: Antiasthmatic effect on histamine-induced asthma in guinea pigs (latency period); type: in vivo; settings: 1 mg/kg oral gavage, sixty minutes after administration; histamine hydrochloride spray; no asthma within 8 minutes counted as 8 minutes; X±s, n = 5
Description: The guinea pigs were placed in a polymethyl methacrylate bell jar and a histamine hydrochloride solution was sprayed ultrasonically (0.8 mg/mL) for 40 seconds. The time point at which the guinea pigs developed asthma was recorded. The time of convulsion and fall was taken as the latency period. Guinea pigs with a latency period exceeding 180 seconds were not selected. […] The guinea pigs were administered by oral gavage at a dose of 2 mL/kg·bw. Sixty minutes after the administration, the guinea pigs were placed in bell jars, and histamine hydrochloride solution was sprayed under the same conditions as in the previous selection. The latency period for the onset of asthma was recorded. […] The results were processed statistically.

[5] = Muscle tone of isolated ileal smooth muscle of guinea pigs contracted with histamine; settings: Table 4; 3 minutes after adding 0.05 mL compound at maximum histamine contraction; x±s, n = 8
Description: as §1, §2

[6] = Accelerated stability test; type: physicochemical; settings: 40°C ± 2°C, relative humidity 75% ± 5%; for remaining at 730 h / remaining at 1460 h / remaining at 2190 h / remaining at 4380 h: storage 75% relative humidity, read-out: Content

Structure (SMILES) | Antispasmodic percentage (%) [1] | Antispasmodic percentage (%) [3] | Post-administration latency period [4] | Smooth muscle tone (g) After administration [5] | Smooth muscle tone (g) After administration [3] | Content ([6]; Month 0) | Description ([6]; Month 0) | Related substances ([6]; Month 0) | Description ([6]; Month 1) | Related substances ([6]; Month 1) | Description ([6]; Month 2) | Related substances ([6]; Month 2) | Description ([6]; Month 3) | Related substances ([6]; Month 3) | Description ([6]; Month 6) | Related substances ([6]; Month 6) | remaining at 730 h ([6]; Month 1) | remaining at 1460 h ([6]; Month 2) | remaining at 2190 h ([6]; Month 3) | remaining at 4380 h ([6]; Month 6) | further results
O=P(O)(O)OCCCN1CCC(=C2c3ccc(Cl)cc3CCc3cccnc32)CC1 [Compound III-7] | 65.36±17.20% | 29.88±18.88% | 382.57 ± 51.11 s | – | – | – | – | – | – | – | – | – | – | – | – | – | – | – | – | – | solubility Isopropanol [2]: 22 mg/mL (≈ 49 mM)
O=P(O)(O)OCCCCN1CCC(=C2c3ccc(Cl)cc3CCc3cccnc32)CC1 [Compound III-10] | 65.24±18.39% | – | 370.80 ± 51.23 s | 1.22 ± 0.19 g | 1.15 ± 0.26 g | – | – | – | – | – | – | – | – | – | – | – | – | – | – | – | solubility Isopropanol [2]: 25 mg/mL (≈ 54 mM)
O=P(O)(O)OCCCCCN1CCC(=C2c3ccc(F)cc3CCc3cccnc32)CC1 [Compound III-14] | 66.07±19.34% | 31.79±17.77% | 372.40 ± 50.33 s | 1.15 ± 0.22 g | 1.18 ± 0.28 g | 99.6% | White powder | 0.03% | White powder | 0.06% | White powder | 0.11% | White powder | 0.15% | White powder | 0.32% | 99.5% | 99.5% | 99.5% | 99.3% | –
O=P(O)(O)OCOCCCCN1CCC(=C2c3ccc(Cl)cc3CCc3cccnc32)CC1 [Compound III-18] | 65.50±19.34% | 34.30±18.66% | 354.29 ± 50.81 s | 1.18 ± 0.26 g | 1.13 ± 0.21 g | 99.7% | White powder | 0.03% | White powder | 0.06% | White powder | 0.12% | White powder | 0.16% | White powder | 0.34% | 99.6% | 99.5% | 99.5% | 99.4% | –
O=P(O)(O)OCCN1CCC(=C2c3ccc(Cl)cc3CCc3cccnc32)CC1 [Compound IV-2] | 65.56±19.28% | 33.14±18.39% | 383.10 ± 50.33 s | 1.18 ± 0.19 g | 1.19 ± 0.31 g | 99.6% | White powder | 0.03% | White powder | 0.05% | White powder | 0.09% | White powder | 0.13% | White powder | 0.26% | 99.6% | 99.5% | 99.5% | 99.4% | –
O=P(O)(O)OCCCN1CCC(=C2c3ccc(Cl)cc3CCc3cccnc32)CC1 [Compound IV-3] | 64.11±19.66% | 32.00±19.55% | 375.50 ± 47.99 s | – | – | – | – | – | – | – | – | – | – | – | – | – | – | – | – | – | solubility Isopropanol [2]: 1 mg/mL (≈ 2.23 mM); solubility Methanol ([2]; in methanol): 21 mg/mL (≈ 46.8 mM); solubility ([2]; water): 390 mg/mL (≈ 869 mM)
O=P(O)(O)OCOCCN1CCC(=C2c3ccc(Cl)cc3CCc3cccnc32)CC1 [Compound IV-8] | 65.50±19.11% | 30.81±18.93% | 360.12 ± 52.01 s | 1.19 ± 0.28 g | 1.19 ± 0.29 g | 99.6% | White powder | 0.03% | White powder | 0.06% | White powder | 0.09% | White powder | 0.14% | White powder | 0.28% | 99.6% | 99.5% | 99.5% | 99.3% | –
O=P(O)(O)OCOCCCN1CCC(=C2c3ccc(Cl)cc3CCc3cccnc32)CC1 [Compound IV-9] | 65.89±19.76% | 32.75±19.48% | 361.82 ± 51.36 s | 1.18 ± 0.29 g | 1.17 ± 0.25 g | 99.7% | White powder | 0.03% | White powder | 0.04% | White powder | 0.05% | White powder | 0.06% | White powder | 0.10% | 99.7% | 99.7% | 99.7% | 99.6% | –
Clc1ccc2c(c1)CCc1cccnc1C2=C1CCNCC1 [Desloratadine, desloratadine, reference compound] | – | – | – | – | – | – | – | – | – | – | – | – | – | – | – | – | – | – | – | – | solubility Water [2]: Practically insoluble
OCCCCCCN1CCC(=C2c3ccc(Cl)cc3CCc3cccnc32)CC1 [Hydroxyhexyl desloratadine, hydroxyhexyl desloratadine, reference compound] | – | 26.31±13.96% | 283.84 ± 58.88 s | 1.43 ± 0.43 g | 1.26 ± 0.23 g | – | – | – | – | – | – | – | – | – | – | – | – | – | – | – | solubility Water [2]: Practically insoluble
OCCCCCN1CCC(=C2c3ccc(Cl)cc3CCc3cccnc32)CC1 [Hydroxypentyl desloratadine, hydroxypentyl desloratadine, reference compound] | – | 28.73±11.32% | 280.29 ± 58.19 s | 1.41 ± 0.42 g | 1.24 ± 0.22 g | – | – | – | – | – | – | – | – | – | – | – | – | – | – | – | solubility Water [2]: Practically insoluble
OCCCN1CCC(=C2c3ccc(Cl)cc3CCc3cccnc32)CC1 [Hydroxypropyl desloratadine, hydroxypropyl desloratadine, reference compound] | – | 24.70±13.43% | 288.33 ± 58.12 s | 1.41 ± 0.42 g | 1.28 ± 0.25 g | – | – | – | – | – | – | – | – | – | – | – | – | – | – | – | solubility Water [2]: Practically insoluble

From patent publication EP4559923A1, “ANTIHISTAMINE COMPOUND, AND PREPARATION METHOD THEREFOR AND USE THEREOF” (HC Synthetic Pharmaceutical Co., Ltd., priority 2022, dated 2024)
